Two compounds from patent publication US20230174571A1, “METHOD OF TREATING SHIP1-MEDIATED DISEASES USING PELOROL DERIVATIVES” (Zebrapeutics Inc., priority 2020, published 2023) can be followed below.

Experiment [1] addresses T1, SHIP1 and STAT3 (Mus musculus, UniProt Q9ES52, Y190F).
T1 construct: expressed in transfected cells; host or cells: J17 (SHIP1-/- mouse BMDM-derived line), lentiviral transduction
T1 sequence (Q9ES52 1-1191 Y190F): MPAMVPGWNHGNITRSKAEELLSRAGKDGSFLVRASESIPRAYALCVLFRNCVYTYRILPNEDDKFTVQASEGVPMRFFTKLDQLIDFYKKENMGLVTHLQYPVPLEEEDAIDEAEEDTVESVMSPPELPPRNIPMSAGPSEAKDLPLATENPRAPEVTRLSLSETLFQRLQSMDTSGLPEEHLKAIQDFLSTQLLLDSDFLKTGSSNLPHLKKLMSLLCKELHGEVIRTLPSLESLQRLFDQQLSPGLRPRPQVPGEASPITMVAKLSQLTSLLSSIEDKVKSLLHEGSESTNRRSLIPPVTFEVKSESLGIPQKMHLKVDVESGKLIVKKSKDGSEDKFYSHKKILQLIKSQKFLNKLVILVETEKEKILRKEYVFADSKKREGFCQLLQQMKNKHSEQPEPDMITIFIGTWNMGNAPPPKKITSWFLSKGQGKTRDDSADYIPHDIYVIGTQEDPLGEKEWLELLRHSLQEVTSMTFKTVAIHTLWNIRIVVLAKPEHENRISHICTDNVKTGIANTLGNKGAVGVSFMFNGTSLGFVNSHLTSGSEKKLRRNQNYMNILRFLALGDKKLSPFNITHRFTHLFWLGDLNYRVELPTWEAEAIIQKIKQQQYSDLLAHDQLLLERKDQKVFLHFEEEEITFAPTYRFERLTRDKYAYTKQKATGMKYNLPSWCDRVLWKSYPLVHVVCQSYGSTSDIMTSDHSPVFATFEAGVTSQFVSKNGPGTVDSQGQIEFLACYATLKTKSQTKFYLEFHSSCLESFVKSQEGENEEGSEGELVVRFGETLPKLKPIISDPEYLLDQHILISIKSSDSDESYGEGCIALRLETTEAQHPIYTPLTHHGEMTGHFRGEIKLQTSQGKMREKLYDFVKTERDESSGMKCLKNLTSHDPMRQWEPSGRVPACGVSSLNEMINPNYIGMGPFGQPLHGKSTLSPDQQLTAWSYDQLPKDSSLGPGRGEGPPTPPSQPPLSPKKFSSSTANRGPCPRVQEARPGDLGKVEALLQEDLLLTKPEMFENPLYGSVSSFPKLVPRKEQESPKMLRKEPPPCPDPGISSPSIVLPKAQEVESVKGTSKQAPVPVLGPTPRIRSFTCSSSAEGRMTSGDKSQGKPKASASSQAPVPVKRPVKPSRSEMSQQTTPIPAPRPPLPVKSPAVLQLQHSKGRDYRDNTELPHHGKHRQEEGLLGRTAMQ
Kind of experiment: In vitro pull down assay of His6-SHIP1 with STAT3. It is filed as cell-based. The following applies: Y190F vs wild-type SHIP1 cells; 5 minutes stimulation. As to the method: In vitro pull down assay. J17 His6-SHIP1 and Y190F cells were seeded at 2×10^6 cells per well in a 6-well plate. After overnight incubation, fresh cell media was added for 30 minutes before stimulation with 100 ng/ml IL10, […] or 20 μM compound I-2 for 5 minutes. Cells were lysed with Protein Solubilization Buffer (PSB, 50 mM Hepes, pH 7.5, […], 10 mM Na Pyrophosphate, 2 mM NaVO4, 2 mM Na Molybdate, 2 mM EDTA) containing 1% octylglucoside, 0.01 M imidazole, and protease inhibitor cocktail (Roche Diagnostics, Laval, QC) for 30 minutes at 4° C. and centrifuged at 10000 rpm for 15 minutes. EDTA resistant Ni beads (Roche Diagnostics, Laval, QC) were added to supernatants and the mixture incubated at 4° C. for 1 hour before spinning down and washing of beads three times with 0.1% octylglucoside wash buffer in PSB. Bead samples and starting material cell lysates were separated on a 7.5% SDS-PAGE gel.
Immunoblotting. Protein lysates were separated on SDS-PAGE gels and transferred onto polyvinylidene fluoride (PVDF) membrane (Millipore, Etobicoke, ON). Membranes were blocked and probed, where appropriate, with the following primary antibodies overnight: SHIP1 (P1C1) (Santa Cruz Biotechnology), pSHIP1 (Y190) (Kinexus), STAT3 (9D8) (ThermoFisher Scientific), pSTAT3 (Y705) (Thermo Fisher Scientific), STAT1 (BD Transduction Laboratories), pSTAT1 (Y701) (Upstate Biotechnology), GAPDH and actin (Sigma-Aldrich). Membranes were developed with either Alexa Fluor® 660 anti-mouse IgG or Alexa Fluor® 680 anti-rabbit IgG antibodies (Thermo Fisher Scientific) and imaged using a LI-COR Odyssey Imager.

Experiment [2] relates to LPS-stimulated TNFα production. Put plainly: Measurement of TNFα production in LPS-stimulated SHIP1 KO cells reconstituted with SHIP1. It counts as cell-based, mouse. The conditions noted are these: 10 ng/ml LPS. As to the method:
Cell lines. J16 and J17 cell lines derived from SHIP1+/+and −/−BMDM respectively were previously described (Ming-Lum et al., 2012) and cultured in Mac media (IMDM supplemented with 10% (v/v) FCS, 10 μM β-mercaptoethanol, 150 μM monothioglycolate and 1 mM L-glutamine). J17 cells expressing wild type and mutant His6-SHIP1, Clover-SHIP1 or mRuby2-STAT3 constructs were generated by lentivirus mediated gene transfer as described (Cheung et al., 2013). Transduced cells were selected with 5 μg/ml blasticidin. Clover-SHIP1 and mRuby2-STAT3 cells were further subjected to fluorescent activated cell sorting to select the brightest cells on a FACS Aria II cytometer.
Measurement of TNFα production. Cells were seeded at 50×10^4 cells per well in a 96-well tissue culture plate and allowed to adhere overnight. Media was changed the next day 1 hour prior to stimulation. Cells were stimulated with 1 or 10 ng/ml LPS+/−various concentrations of IL10 for 1 hour. Supernatant was collected and secreted TNFα protein levels were measured using a BD OptEIA Mouse TNFα Enzyme-Linked Immunosorbent Assay (ELISA) kit (BD Biosciences, Mississauga, ON). Triplicates wells were used for each stimulation condition. IC50 values were calculated from three independent experiments and differences in IL10 […] values from cells expressing SHIP1 mutants vs SHIP1 WT protein were analyzed by one-way ANOVA.

For the compound `CC12CCC3C(C)(C)C(N)CCC3(C)C1Cc1cc(O)cc(O)c12` (stereo not shown) [Compound I-2], in experiment [1], the “reduction of Y190F SHIP1 mutant ability to interact with STAT3” value came out at 2 fold.

In the case of “IL10: anti-inflammatory cytokine interleukin-10”, in experiment [1], the “reduction of Y190F SHIP1 mutant ability to interact with STAT3” value is given as 2 fold. The TNFα production entry in experiment [2] (cells expressing K681A SHIP1) was “not”; in experiment [2] (cells expressing wild-type SHIP1), “inhibited TNFα production efficiently”.
